From patent US20200000766A1, “COMPOSITIONS AND METHODS FOR AGONIZING THE CB2 RECEPTOR” (priority 2018, published 2020)

Experiments:
[1] = target: T1, human CB2 (Homo sapiens, UniProt P34972); design: expressed in transfected cells; details: cited from earlier work
[2] = test system: transient receptor potential (TRP) channels; details: cited from earlier work
[3] = target: T1, human CB2; experiment: Cannabinoid Receptor 2 (CB2) activity, calcium FLIPR assay in CHO-K1 cells co-expressing human CB2 and G15; details: FIG. 1 and FIG. 2

T1 sequence (P34972 whole entry): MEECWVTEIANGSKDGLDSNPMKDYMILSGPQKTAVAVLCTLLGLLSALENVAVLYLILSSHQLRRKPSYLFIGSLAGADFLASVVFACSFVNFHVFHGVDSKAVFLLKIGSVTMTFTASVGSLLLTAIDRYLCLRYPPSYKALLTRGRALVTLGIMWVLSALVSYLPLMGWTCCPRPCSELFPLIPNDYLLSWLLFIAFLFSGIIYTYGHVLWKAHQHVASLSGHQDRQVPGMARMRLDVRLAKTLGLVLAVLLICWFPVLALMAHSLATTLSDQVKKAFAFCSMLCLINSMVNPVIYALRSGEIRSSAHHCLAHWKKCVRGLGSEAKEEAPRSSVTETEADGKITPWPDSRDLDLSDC

In the case of `C=C(C)[C@@H]1CCC(C)=C[C@H]1c1c(O)cc(CCCCC)cc1O` [CBD, cannabidiol], the “agonism at the CB2 receptor (known)” value [1] is listed as “known agonist”.

In the case of `CCCCCc1cc(O)c2c(c1)OC(C)(CCC=C(C)C)C=C2` (stereo not shown) [CBC, cannabichromene], the “agonism at several TRP channels” value [2] is listed as “known agonist at several transient receptor potential (TRP) channels, albeit somewhat weakly”, the “agonist potency at the human CB2 receptor compared with other phytocannabinoid agonists (CBD, CBCV)” value [3] is listed as “more potent agonist” and the “potency at human CB2 receptor relative to CBD” value ([3]; two independent experiments) is listed as “at least 4 fold”.
